Results: publication PMC11012124, “Synthesis of Novel Triazine-Based Chalcones and 8,9-dihydro-7H-pyrimido[4,5-b][1,4]diazepines as Potential Leads in the Search of Anticancer, Antibacterial and Antifungal Agents” (International Journal of Molecular Sciences, 2024)

Legend:
Assay in all cases: cells
SNB-75 = settings: Homo sapiens, SNB-75, 48 h; for CC50: read-out: LC50
K-562 = settings: Homo sapiens, K562, 48 h; for GI50: K-562, 48 h; for CC50: read-out: LC50
SK-MEL-28 = settings: Homo sapiens, SK-MEL-28, 48 h; for CC50: read-out: LC50
786-0 = settings: Homo sapiens, 786-0, 48 h; for CC50: read-out: LC50
MDA-MB-468 = settings: Homo sapiens, MDA-MB-468, 48 h; for CC50: read-out: LC50
NCI-H460 = settings: Homo sapiens, NCI-H460, 48 h; for CC50: read-out: LC50
HOP-92 = settings: Homo sapiens, HOP-92, 48 h; for CC50: read-out: LC50
SK-MEL-5 = settings: Homo sapiens, SK-MEL-5, 48 h; for CC50: read-out: LC50
IGROV1 = settings: Homo sapiens, IGROV-1, 48 h
SK-OV-3 = settings: Homo sapiens, SK-OV-3, 48 h; for CC50: read-out: LC50
NCI-H522 = settings: Homo sapiens, NCI-H522, 48 h; for CC50: read-out: LC50
RXF 393 = settings: Homo sapiens, RXF 393, 48 h; for CC50: read-out: LC50
A549/ATCC = settings: Homo sapiens, A549, 48 h; for CC50: read-out: LC50
SK-MEL-2 = settings: Homo sapiens, SK-MEL-2, 48 h; for CC50: read-out: LC50
SR = settings: Homo sapiens, 48 h; for CC50: read-out: LC50
HCT-15 = settings: Homo sapiens, HCT-15, 48 h; for CC50: read-out: LC50
CAKI-1 = settings: Homo sapiens, CAKI-1, 48 h; for CC50: read-out: LC50
TK-10 = settings: Homo sapiens, TK-10, 48 h; for CC50: read-out: LC50
SW-620 = settings: Homo sapiens, SW-620, 48 h; for CC50: read-out: LC50
SNB-19 = settings: Homo sapiens, SNB-19, 48 h; for CC50: read-out: LC50
KM12 = settings: Homo sapiens, KM12, 48 h; for CC50: read-out: LC50
HCC-2998 = settings: Homo sapiens, HCC 2998, 48 h; for CC50: read-out: LC50
NCI/ADR-RES = settings: Homo sapiens, 48 h
NCI-H23 = settings: Homo sapiens, NCI-H23, 48 h

Q: How did the GI50 (SNB-75) turn out when `Nc1nc(N)c2c(n1)NC(c1ccc(F)cc1)CC(c1ccc(Nc3nc(NCCO)nc(Nc4ccc(Cl)cc4)n3)cc1)=N2` (centres unmarked) [33f] was run?
A: Its GI50 is 3.35 µM.

Q: What about the CC50 (SNB-75) of the same molecule?
A: The CC50 was 45.4 µM.

Q: And the GI50 (K-562)?
A: The GI50 was 0.489 µM.

Q: And the CC50 (K-562)?
A: The CC50 was greater than 100 µM.

Q: What about the GI50 (SK-MEL-28) of the same molecule?
A: Its GI50 is 1.7 µM.

Q: And the CC50 (SK-MEL-28)?
A: The CC50 was 5.93 µM.

Q: What about the GI50 (786-0) of the same molecule?
A: The GI50 was 1.36 µM.

Q: And the CC50 (786-0)?
A: Its CC50 is 7.12 µM.

Q: And the GI50 (MDA-MB-468)?
A: The GI50 was 1.48 µM.

Q: What about the CC50 (MDA-MB-468) of the same molecule?
A: Its CC50 is 6.7 µM.

Q: And the GI50 (NCI-H460)?
A: Its GI50 is 1.71 µM.

Q: And the CC50 (NCI-H460)?
A: Its CC50 is 7.73 µM.

Q: And the GI50 (HOP-92)?
A: The GI50 was 1.25 µM.

Q: And the CC50 (HOP-92)?
A: Its CC50 is 10.2 µM.

Q: What about the GI50 (SK-MEL-5) of the same molecule?
A: Its GI50 is 1.46 µM.

Q: And the CC50 (SK-MEL-5)?
A: The CC50 was 5.3 µM.

Q: What about the GI50 (IGROV1) of the same molecule?
A: The GI50 was 1.7 µM.

Q: What about the GI50 (SK-OV-3) of the same molecule?
A: Its GI50 is 12.9 µM.

Q: What about the CC50 (SK-OV-3) of the same molecule?
A: Its CC50 is 50.5 µM.

Q: What about the GI50 (NCI-H522) of the same molecule?
A: Its GI50 is 1.43 µM.

Q: And the CC50 (NCI-H522)?
A: The CC50 was 6.16 µM.

Q: What about the GI50 (RXF 393) of the same molecule?
A: Its GI50 is 1.17 µM.

Q: What about the CC50 (RXF 393) of the same molecule?
A: Its CC50 is 5.9 µM.

Q: What about the GI50 (A549/ATCC) of the same molecule?
A: The GI50 was 3.12 µM.

Q: And the CC50 (A549/ATCC)?
A: Its CC50 is greater than 100 µM.

Q: And the GI50 (SK-MEL-2)?
A: Its GI50 is 1.67 µM.

Q: And the CC50 (SK-MEL-2)?
A: The CC50 was 5.75 µM.

Q: And the GI50 (SR)?
A: Its GI50 is 0.672 µM.

Q: What about the CC50 (SR) of the same molecule?
A: Its CC50 is greater than 100 µM.

Q: What about the GI50 (HCT-15) of the same molecule?
A: The GI50 was 1.03 µM.

Q: And the CC50 (HCT-15)?
A: Its CC50 is 7.87 µM.

Q: And the GI50 (CAKI-1)?
A: The GI50 was 6.14 µM.

Q: And the CC50 (CAKI-1)?
A: The CC50 was greater than 100 µM.

Q: What about the GI50 (TK-10) of the same molecule?
A: The GI50 was 4.61 µM.

Q: What about the CC50 (TK-10) of the same molecule?
A: The CC50 was 45.5 µM.

Q: And the GI50 (SW-620)?
A: The GI50 was 1.6 µM.

Q: What about the CC50 (SW-620) of the same molecule?
A: Its CC50 is 6.68 µM.

Q: What about the GI50 (SNB-19) of the same molecule?
A: The GI50 was 1.76 µM.

Q: What about the GI50 (KM12) of the same molecule?
A: The GI50 was 1.68 µM.

Q: What about the CC50 (KM12) of the same molecule?
A: Its CC50 is 8.22 µM.

Q: And the GI50 (HCC-2998)?
A: Its GI50 is 1.61 µM.

Q: And the CC50 (HCC-2998)?
A: Its CC50 is 5.78 µM.

Q: What about the GI50 (NCI/ADR-RES) of the same molecule?
A: Its GI50 is 7.73 µM.

Q: What about the CC50 (NCI/ADR-RES; read-out: LC50) of the same molecule?
A: Its CC50 is greater than 100 µM.

Q: Which results are given for `Nc1nc(N)c2c(n1)NC(c1ccc(C(F)(F)F)cc1)CC(c1ccc(Nc3nc(NCCO)nc(Nc4ccc(Cl)cc4)n3)cc1)=N2` (centres unmarked) [33g]?
A: GI50 (SNB-75): 1.7 µM; CC50 (SNB-75): 9.06 µM; GI50 (K-562): 0.642 µM; CC50 (K-562): > 100 µM; GI50 (SK-MEL-28): 1.53 µM; CC50 (SK-MEL-28): 5.37 µM; GI50 (786-0): 1.39 µM; CC50 (786-0): 6.09 µM; GI50 (MDA-MB-468): 1.58 µM; CC50 (MDA-MB-468): 6.53 µM; GI50 (NCI-H460): 1.96 µM; CC50 (NCI-H460): 8.23 µM; GI50 (HOP-92): 1.48 µM; CC50 (HOP-92): 7.94 µM; GI50 (SK-MEL-5): 1.55 µM; CC50 (SK-MEL-5): 5.37 µM; GI50 (IGROV1): 1.37 µM; GI50 (SK-OV-3): 1.83 µM; CC50 (SK-OV-3): 6.52 µM; GI50 (NCI-H522): 1.34 µM; CC50 (NCI-H522): 5.54 µM; GI50 (RXF 393): 1.14 µM; CC50 (RXF 393): 5.48 µM; GI50 (A549/ATCC): 1.73 µM; CC50 (A549/ATCC): 7.08 µM; GI50 (SK-MEL-2): 1.67 µM; CC50 (SK-MEL-2): 5.64 µM; GI50 (SR): 1.46 µM; CC50 (SR): > 100 µM; GI50 (HCT-15): 1.15 µM; CC50 (HCT-15): 5.83 µM; GI50 (CAKI-1): 1.45 µM; CC50 (CAKI-1): 5.61 µM; GI50 (TK-10): 1.78 µM; CC50 (TK-10): 5.63 µM; GI50 (SW-620): 1.6 µM; CC50 (SW-620): 7.04 µM; GI50 (SNB-19): 1.51 µM; CC50 (SNB-19): 5.76 µM; GI50 (KM12): 1.37 µM; CC50 (KM12): 6.05 µM; GI50 (HCC-2998): 1.31 µM; CC50 (HCC-2998): 5.25 µM; GI50 (NCI/ADR-RES): 1.95 µM

Q: Which results are given for `COc1cc(/C=C/C(=O)c2ccc(S(=O)(=O)NCCNc3nc(N(C)C)nc(N4CCOCC4)n3)cc2)cc(OC)c1OC` [23d]?
A: GI50 (SNB-75): 1.56 µM; CC50 (SNB-75): 41.6 µM; GI50 (NCI-H23): 3.09 µM; CC50 (NCI-H23; read-out: LC50): 40.3 µM; GI50 (K-562): 1.46 µM; CC50 (K-562): > 100 µM; GI50 (SK-MEL-28): 2.12 µM; CC50 (SK-MEL-28): 13 µM; GI50 (786-0): 1.89 µM; CC50 (786-0): 7.18 µM; GI50 (MDA-MB-468): 1.69 µM; CC50 (MDA-MB-468): 6.66 µM; GI50 (NCI-H460): 3.17 µM; CC50 (NCI-H460): 59 µM; GI50 (HOP-92): 7.27 µM; CC50 (HOP-92): 76 µM; GI50 (SK-MEL-5): 7.9 µM; CC50 (SK-MEL-5): 46.6 µM; GI50 (IGROV1): 2.6 µM; CC50 (IGROV1; read-out: LC50): 50.1 µM; GI50 (SK-OV-3): 14.3 µM; CC50 (SK-OV-3): 52.7 µM; GI50 (NCI-H522): 1.66 µM; CC50 (NCI-H522): 6.37 µM; GI50 (RXF 393): 1.22 µM; CC50 (RXF 393): 8.63 µM; GI50 (A549/ATCC): 3.55 µM; CC50 (A549/ATCC): 43.9 µM; GI50 (SK-MEL-2): 10.7 µM; CC50 (SK-MEL-2): 48.9 µM; GI50 (SR): 1.88 µM; CC50 (SR): > 100 µM; GI50 (HCT-15): 1.82 µM; CC50 (HCT-15): 8.38 µM; GI50 (CAKI-1): 10.6 µM; CC50 (CAKI-1): 51 µM; GI50 (TK-10): 13.1 µM; CC50 (TK-10): 50.8 µM; GI50 (SW-620): 1.9 µM; CC50 (SW-620): 7.42 µM; GI50 (SNB-19): 4.28 µM; CC50 (SNB-19): 41.7 µM; GI50 (KM12): 1.7 µM; CC50 (KM12): 6.52 µM; GI50 (HCC-2998): 1.8 µM; CC50 (HCC-2998): 5.9 µM
